Measured values published in patent US9987276B2 (Celgene CAR LLC, priority 2008, dated 2018).
“Also recorded” adds a separate entry of the source.

Assays:
[1] = biological target: T1, BTK (Homo sapiens (Human), UniProt Q06187); experiment: BTK occupancy in Ramos cells with I-7 and probe I-215 using streptavidin beads; assay type: cell-based; details: 1 hour, higher concentrations of I-7 (0.1, 0.05 μM)
Protocol: Ramos cells were incubated with 0.1, 0.05, 0.01, or 0.001 μM I-7 in serum free media for 1 hour at 37° C. The cells were pelleted by centrifugation and lysed in Cell Extraction buffer (Invitrogen) for 10 minutes on ice, centrifuged (10 minutes at 14,000 rpm) and the supernatant was collected. Cell lysates were incubated with 1 μM I-215 for 1 hour at room temperature, then incubated with streptavidin-coupled agarose beads (ThermoFisher) overnight at 4° C. The beads were washed three times with lysis buffer and the bound proteins were boiled off the beads at 95° C. for 5 minutes in 4×LDS Sample Buffer. The amount of BTK associated with the probe I-215 was assessed by BTK western blot. All values were normalized to the DMSO-treated sample which is set to 100%.

[2] = tested on: TI-2 independent B cell activation; experiment: In vivo thymus-independent (TI-2) B cell activation; details: C57/B6 mice, 100 mg/kg daily day 0 through 5, TNP-Ficoll, serum day 6
[3] = biological target: T1, BTK; experiment: BTK occupancy from in vitro samples by ELISA (Ramos cells); assay type: cell-based; details: ELISA with probe I-215
Protocol: In order to determine the amount of free BTK in cell or tissue lysates, an ELISA protocol was employed that utilizes a biotinylated probe compound that binds only to free, unoccupied BTK. The conjugated biotin is captured on a streptavidin-coated ELISA plate and detected with a mouse anti-BTK antibody (Becton Dickinson, Franklin Lakes, N.J., USA) and a secondary goat anti-mouse HRP antibody (Zymed, South San Francisco, Calif., USA).
All samples were prepared with equal concentrations of Biorad lysis buffer (Hercules, Calif., USA), 0.5% bovine serum albumin in PBS with 0.05% Tween-20 to give a final concentration of 1 μM I-215. Samples were incubated in a mixing plate for 1 hr at room temperature while shaking to allow probe compound I-215 to bind to free BTK. After incubation with I-215, samples were added to a washed, streptavidin-coated ELISA plate (Pierce, Rockford, Ill., USA) and incubated for 1 hr at room temperature while shaking. The plate was then washed with PBS containing 0.05% Tween-20 using an automatic plate washer. Anti-BTK antibody was prepared at 1:1000 dilution in 0.5% BSA in PBS (0.05% Tween-20) and added to the ELISA plate. The plate was incubated for 1 hr at room temperature while shaking. The plate was washed as described above and the secondary HRP antibody was prepared at 1:5000 dilution in 0.5% BSA in PBS (0.05% Tween-20). The plate was incubated and washed as described above. TMB was added to the plate, and OD650 was monitored until reaching 1 OD unit. The reaction was then stopped with addition of H2SO4. The plate was analyzed using Gen 5 software, and a 4 Parameter Logistic curve was employed to quantitate samples. Recombinant BTK (Invitrogen, Carlsbad, Calif., USA) was used for the standard curve.
A concentration designated as “A” is greater than 1 nM; a concentration designated as “B” is greater than 10 nM; and a concentration designated as “C” is greater than 50 nM.

[4] = biological target: T1, BTK; experiment: Mass spectrometry for BTK (intact protein); assay type: binding; details: 1 hr, 10× fold excess of compound
Protocol: Intact BTK was incubated for 1 hr at a 10× fold excess of I-7 to protein. Aliquots (2 μl) of the samples were diluted with 10 μl of 0.1% TFA prior to micro C4 ZipTipping directly onto the MALDI target using Sinapinic acid as the desorption matrix (10 mg/ml in 0.1% TFA:Acetonitrile 20:80).

[5] = biological target: EGFR T790M (Homo sapiens (Human), UniProt P00533, T790M); experiment: EGFR mutant T790M inhibition assay; assay type: biochemical
Protocol: The Omnia Assay Protocol for potency assessment against EGFR is performed as described in Example 251 above except that the EGFR-WT- and EGFR T790M/L858R-modified optimized reagent conditions are: […]

T1 sequence (Q06187 whole entry): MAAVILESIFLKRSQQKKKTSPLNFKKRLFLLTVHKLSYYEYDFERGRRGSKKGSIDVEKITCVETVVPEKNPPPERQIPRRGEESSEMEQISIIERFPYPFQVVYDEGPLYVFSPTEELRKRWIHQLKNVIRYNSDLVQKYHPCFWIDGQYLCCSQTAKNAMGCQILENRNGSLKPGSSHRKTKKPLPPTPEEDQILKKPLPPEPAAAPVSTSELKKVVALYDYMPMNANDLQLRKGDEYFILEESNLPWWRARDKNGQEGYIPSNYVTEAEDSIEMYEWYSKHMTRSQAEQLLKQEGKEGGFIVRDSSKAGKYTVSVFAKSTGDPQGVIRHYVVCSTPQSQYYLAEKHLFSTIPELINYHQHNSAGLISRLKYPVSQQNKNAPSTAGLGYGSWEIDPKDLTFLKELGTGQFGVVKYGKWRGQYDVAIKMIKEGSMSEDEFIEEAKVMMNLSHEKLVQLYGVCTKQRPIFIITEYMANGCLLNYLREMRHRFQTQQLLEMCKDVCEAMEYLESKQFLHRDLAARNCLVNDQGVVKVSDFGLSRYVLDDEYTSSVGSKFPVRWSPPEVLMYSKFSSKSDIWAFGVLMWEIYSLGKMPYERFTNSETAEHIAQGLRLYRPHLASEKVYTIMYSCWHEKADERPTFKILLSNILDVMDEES
Sequence of EGFR T790M (P00533 25-1210 T790M): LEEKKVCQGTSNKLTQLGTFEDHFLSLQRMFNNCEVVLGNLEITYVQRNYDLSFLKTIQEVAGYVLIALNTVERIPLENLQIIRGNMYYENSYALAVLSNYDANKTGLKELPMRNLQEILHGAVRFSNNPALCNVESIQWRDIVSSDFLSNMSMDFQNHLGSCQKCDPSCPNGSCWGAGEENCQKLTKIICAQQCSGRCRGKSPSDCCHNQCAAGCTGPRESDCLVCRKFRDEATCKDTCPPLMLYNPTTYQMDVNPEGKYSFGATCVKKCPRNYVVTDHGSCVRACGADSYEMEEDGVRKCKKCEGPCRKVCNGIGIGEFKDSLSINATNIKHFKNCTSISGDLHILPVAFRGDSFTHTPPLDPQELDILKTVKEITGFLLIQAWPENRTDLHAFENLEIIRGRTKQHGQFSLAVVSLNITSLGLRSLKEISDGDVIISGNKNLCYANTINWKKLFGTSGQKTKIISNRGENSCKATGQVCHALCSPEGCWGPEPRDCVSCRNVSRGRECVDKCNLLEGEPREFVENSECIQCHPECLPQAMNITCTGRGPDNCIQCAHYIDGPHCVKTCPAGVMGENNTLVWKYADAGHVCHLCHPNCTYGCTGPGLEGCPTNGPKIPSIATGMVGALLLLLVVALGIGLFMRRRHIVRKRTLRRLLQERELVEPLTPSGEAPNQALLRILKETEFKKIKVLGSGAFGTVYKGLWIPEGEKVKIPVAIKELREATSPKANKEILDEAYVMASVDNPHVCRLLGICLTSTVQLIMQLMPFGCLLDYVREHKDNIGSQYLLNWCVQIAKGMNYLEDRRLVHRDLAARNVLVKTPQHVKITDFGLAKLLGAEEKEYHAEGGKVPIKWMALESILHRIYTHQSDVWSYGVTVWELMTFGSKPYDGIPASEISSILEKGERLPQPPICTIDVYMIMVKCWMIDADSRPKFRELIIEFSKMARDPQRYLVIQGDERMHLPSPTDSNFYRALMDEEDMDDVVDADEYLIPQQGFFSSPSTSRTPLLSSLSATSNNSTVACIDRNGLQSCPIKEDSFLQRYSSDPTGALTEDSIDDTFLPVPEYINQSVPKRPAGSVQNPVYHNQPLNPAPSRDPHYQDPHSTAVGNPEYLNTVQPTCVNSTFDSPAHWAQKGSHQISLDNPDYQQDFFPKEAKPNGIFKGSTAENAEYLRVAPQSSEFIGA

## C=CC(=O)Nc1cccc(Nc2nc(Nc3ccccc3)ncc2C)c1 [Compound I-7, N-(3-(5-methyl-2-(phenylamino)pyrimidin-4-ylamino)phenyl) acrylamide]
[1]
  BTK occupancy (BTK available to probe I-215): fully occupied
[2]
  % Inhibition IgG3 (1:100): 57%
  % Inhibition IgM (1:1600): 48%
[3]
  >50% occupancy (concentration at which >50% of BTK is occupied): A (greater than 1 nM)
  >90% occupancy (concentration at which >90% of BTK is occupied): B (greater than 10 nM)
[4]
  covalent modification of BTK (mass spectrometry): complete modification; also recorded: covalent modification

## Cc1cccc(Nc2nc(Nc3cccc(NC(=O)/C=C/CN(C)C)c3)ncc2F)c1 [Compound I-4, (E)-4-(dimethylamino)-N-(3-(5-fluoro-4-(m-tolylamino)pyrimidin-2-ylamino)phenyl)but-2-enamide]
[5]
  IC50: < 0.01 µM
